Experimental data: patent publication US20120022024A1, “ANTI-BACTERIAL COMPOSITIONS AND METHODS INCLUDING TARGETING VIRULENCE FACTORS OF STAPHYLOCOCCUS AUREUS” (priority 2009, published 2012)
Counter-ions that a name gives are not always drawn. Like-named read-outs stand apart in the source and are kept apart here.

Legend:
[1] = target: T1, human squalene synthase (hSQS) (Homo sapiens, UniProt P37268); test: Human SQS enzyme inhibition assay; format: biochemical; details: for CrtM/hSQS selectivity: IC50(hSQS)/IC50(CrtM); for relative CrtM/hSQS selectivity: selectivity of compound/selectivity of 1; for IC50: Table 8; for pIC50 (CrtM) − pIC50 (hSQS): experimental data
T1 construct: a double truncated protein lacking residues 31 at the N-terminus and 46 at the C-terminus; six-histidine tag (pET-28a) (N); made in house; host or cells: E. coli BL21 (DE3) RP
T1 sequence (P37268 31-370 limits assumed): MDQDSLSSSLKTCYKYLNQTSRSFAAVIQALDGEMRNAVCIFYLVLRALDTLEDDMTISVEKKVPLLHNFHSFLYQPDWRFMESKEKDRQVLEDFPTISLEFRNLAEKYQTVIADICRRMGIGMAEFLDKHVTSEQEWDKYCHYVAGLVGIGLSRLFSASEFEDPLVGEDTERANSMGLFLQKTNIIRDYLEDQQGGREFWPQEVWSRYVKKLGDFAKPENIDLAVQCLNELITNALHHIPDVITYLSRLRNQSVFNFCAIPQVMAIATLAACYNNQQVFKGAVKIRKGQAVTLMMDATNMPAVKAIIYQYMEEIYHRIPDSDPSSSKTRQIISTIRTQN
Method: The corresponding amplified insert was initially cloned in the vector pGEMT® (Promega). Plasmid was digested with the endonucleases NdeI and BamHI, and the resulting fragment was cloned into the bacterial expression vector pET-28a to give pET28a-HsSQS which was used to transform E. coli BL21 (DE3) RP strain (Novagen) for overexpression.
Bacteria expressing the constructs were cultured in Luria-Bertani medium supplemented with kanamycin (30 μg/ml) and chloramphenicol (34 μg/ml) at 37° C., until the cells reached an OD of 0.4 at 600 nm, and were then induced at 37° C. for 4 h by incubation with 1 mM isopropyl-1-thio-β-D-galactopyranoside. Cells were harvested by centrifugation (10 min, 4000 rpm) and resuspended in 10 ml of lysis/elution buffer (20 mM […], pH 7.4, 10 mM CHAPS, 2 mM MgCl2, 10% glycerol, 10 mM—mercaptoethanol, 500 mM NaCl, 10 mM imidazole, and a protease inhibitor cocktail (Roche), disrupted by sonication, and centrifuged at 16,000 rpm for 30 min. The supernatant ([…]) was then applied to a HiTrap Nickel-Chelating HP column (Amersham Biosciences). Enzyme purification was performed according to the manufacturer's instructions using a Pharmacia FPLC system. Unbound protein was washed off with 50 mM imidazole, then the His6-HsSQS was eluted with 1M imidazole.
SQS activity was based on measuring the conversion of [3H]FPP to [3H]squalene. […] The region of the squalene band was scraped and immersed in Hydrofluor liquid scintillation fluid, and assayed for radioactivity. IC50 values were calculated from the hyperbolic plot of percent of inhibition versus inhibitor concentration, using GraphPad PRISM®.

[2] = target: S. aureus CrtM (dehydrosqualene synthase) (Staphylococcus aureus, UniProt A9JQL9); test: CrtM enzyme inhibition assay
Sequence of S. aureus CrtM (dehydrosqualene synthase) (A9JQL9 whole entry): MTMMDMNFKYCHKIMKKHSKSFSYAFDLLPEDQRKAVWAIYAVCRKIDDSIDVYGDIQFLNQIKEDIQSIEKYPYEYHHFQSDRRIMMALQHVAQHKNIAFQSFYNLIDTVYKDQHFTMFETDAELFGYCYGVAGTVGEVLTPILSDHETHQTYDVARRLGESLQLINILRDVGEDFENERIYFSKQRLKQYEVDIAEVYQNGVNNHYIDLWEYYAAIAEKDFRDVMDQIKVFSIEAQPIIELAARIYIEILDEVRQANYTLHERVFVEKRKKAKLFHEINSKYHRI

[3] = system: staphyloxanthin (STX) biosynthesis in S. aureus; test: Staphyloxanthin biosynthesis inhibition assay; format: cell-based, Staphylococcus aureus
Method: The question next arises: how potent are these compounds in inhibiting STX biosynthesis in S. aureus? We thus treated S. aureus bacteria with serially diluted compounds at 37° C. for 3 days, after which the STX pigment was extracted with methanol. Optical densities were measured at 450 nm and IC50 values for inhibition of pigment formation for each compound were calculated using a standard dose-response curve. The rank ordered IC50 values of the 38 compounds investigated are shown in Table 7 and dose-response curves of representative compounds are shown in FIG. 2.
The S. aureus strain used was the WT clinical isolate (Pig1) (4). S. aureus was cultured in THB (1 mL) in the presence of inhibitor compounds for 72 h, in duplicate. Cells were then centrifuged and washed twice with PBS. STX was extracted with MeOH and the O.D. was determined at 450 nm using a Perkin Elmer MBA 2000 (Norwalk, Conn.) spectrophotometer.

S. aureus [4] = details: non-pigmented S. aureus after treatment versus normally pigmented; cited from earlier work
S. aureus [5] = details: treated mice compared to a control group; cited from earlier work
S. aureus [6] = details: non-pigmented S. aureus after treatment versus normally pigmented; cited from earlier work; remark: listed apart in the source
[7] = read-out: CrtM enzyme experimental activity IC50, Table 5
[8] = Staphylococcus aureus, 72 h, read-out: Staphyloxanthin IC50
[9] = Staphylococcus aureus, read-out: IC50(STX)
[10] = read-out: CrtM IC50 values, Table 4
[11] = Table 7, S. aureus, 37° C., 3 days, read-out: Staphyloxanthin IC50

CP(=O)([O-])C(CCCc1ccc(-c2ccccc2)cc1)P(=O)([O-])[O-].[K+].[K+].[K+] (centres unmarked) [Compound 4]
CrtM/hSQS selectivity [1]: 0.014
relative CrtM/hSQS selectivity [1]: 4.7

O=P([O-])([O-])C(CCc1cccc(Oc2ccccc2)c1)S(=O)(=O)[O-].[K+].[K+].[K+] (centres unmarked) [Compound 15, 1-Phosphono-3-(3-phenoxyphenyl)propylsulfonic acid tripotassium salt]
IC50 [2]: > 500 µM
CrtM enzyme experimental activity pIC50 ([2]; Table 5): 3.3
IC50 [2, 7]: 500 µM
CrtM/hSQS selectivity [1]: 0.0011
IC50 [1]: 0.55 µM
pIC50 (CrtM) − pIC50 (hSQS) [1]: −2.96
relative CrtM/hSQS selectivity [1]: 0.4
IC50 [3, 8]: 20.4 µM

O=P([O-])([O-])C(CCCc1cccc(Oc2ccc(F)cc2)c1)S(=O)(=O)[O-].[K+].[K+].[K+] (centres unmarked) [Compound 5, 1-Phosphono-4-[3-(4-fluorophenoxy)phenyl]butylsulfonic acid tripotassium salt]
IC50 [2]: 2.34 µM
Ki [2]: ~0.005 µM
as active as 1 in CrtM inhibition ([2]; fold more active, versus 1): ~4 ×
IC50 ([2]; read-out: IC50 against CrtM): 2.3 µM
IC50 [3, 8]: 0.052 µM

Cc1ccc(-c2ccc(CCCC(P(=O)(O)O)S(=O)(=O)O)cc2)cc1 (centres unmarked) [Compound 11, 1-Phosphono-4-[4-(4-methylphenyl)phenyl]butylsulfonic acid tripotassium salt]
IC50 [2, 7]: 24.5 µM
IC50 [3, 8]: 0.18 µM

O=C(CP(=O)(O)O)NCCCc1cccc(Oc2ccccc2)c1 [compound 830]
IC50 [2]: 8.9 µM
IC50 [3, 9]: 0.008 µM

O=P(O)(O)C(CCCc1ccc(-c2ccc(F)cc2F)cc1)S(=O)(=O)O (centres unmarked) [Compound 10, 1-Phosphono-4-[4-(2,4-difluorophenyl)phenyl]butylsulfonic acid tripotassium salt]
IC50 [2, 7]: 9.1 µM
IC50 [3, 8]: 0.18 µM

O=C(CP(=O)(O)O)NCCc1cccc(Oc2ccccc2)c1 [compound 897]
IC50 [2]: 323 µM
IC50 [3, 9]: 3 µM

1-Phosphono-4-[3-(2-fluorophenoxy)phenyl]butylsulfonic acid tripotassium salt [Compound 21]
CrtM enzyme experimental activity pIC50 ([2]; Table 5): 5.16
IC50 [2, 10]: 6.9 µM
IC50 [2, 7]: 6.9 µM
IC50 [3, 11]: 0.51 µM

Cc1ccc(-c2ccc(CCCN(O)C(=O)CP(=O)(O)O)cc2)cc1 [compound 826]
IC50 [2]: > 1500 µM
IC50 [3, 9]: 4.11 µM

1-Phosphono-4-[3-(3,5-difluorophenoxy)phenyl]butylsulfonic acid tripotassium salt [Compound 33]
CrtM enzyme experimental activity pIC50 ([2]; Table 5): 5.34
IC50 [2, 10]: 4.6 µM
IC50 [2, 7]: 4.6 µM
IC50 [3, 11]: 0.015 µM

1-Phosphono-4-[3-(benzofuran-5-yloxy)phenyl]butylsulfonic acid tripotassium salt [Compound 32]
CrtM enzyme experimental activity pIC50 ([2]; Table 5): 5.67
IC50 [2, 10]: 2.1 µM
IC50 [2, 7]: 2.1 µM
IC50 [3, 11]: 0.015 µM

O=C(CP(=O)(O)O)N(O)CCCc1cccc(Oc2ccccc2)c1 [compound 808]
IC50 [2]: 67.5 µM
IC50 [3, 9]: 0.108 µM
IC50 ([3]; Staphylococcus aureus, read-out: IC50(STX), cell activity): 0.11 µM

O=P([O-])([O-])C(CCCc1cccc(Oc2ccccc2)c1)S(=O)(=O)[O-].[K+].[K+].[K+] (centres unmarked) [Compound 1, 1-Phosphono-4-(3-phenoxyphenyl)butylsulfonic acid tripotassium salt, reference compound]
IC50 ([2]; read-out: IC50 against CrtM): 7.9 µM
survival in freshly isolated human whole blood (S. aureus [4]): less able to survive in freshly isolated human whole blood
bacterial counts in kidneys reduced / bacterial growth inhibited (S. aureus [5]): 98%
susceptibility to killing by hydrogen peroxide (S. aureus [6]): much more susceptible to killing by hydrogen peroxide
IC50 [3, 8]: 0.11 µM
IC50 ([3]; Staphylococcus aureus, read-out: IC50 (STX)): 0.11 µM
IC50 [3, 9]: 0.11 µM
IC50 ([3]; Staphylococcus aureus, read-out: IC50 for STX biosynthesis): 0.11 µM

O=P([O-])([O-])C(CCCc1ccc(-c2ccc(C(F)(F)F)cc2)cc1)P(=O)([O-])[O-].[K+].[K+].[K+].[K+] [Compound 3]
CrtM enzyme experimental activity pIC50 ([2]; Table 5): 6.74
CrtM/hSQS selectivity [1]: 0.014
pIC50 (CrtM) − pIC50 (hSQS) [1]: −1.86
relative CrtM/hSQS selectivity [1]: 4.8

O=P([O-])([O-])C(CCCc1ccc(-c2ccc(C(F)(F)F)cc2)cc1)P(=O)([O-])[O-].[K+].[K+].[K+].[K+] [Compound 3, 4-[4-(4-Trifluoromethylphenyl)phenyl)]butyldiphosphonic acid dipotassium salt]
Ki [2]: ~0.0005 µM
IC50 [2, 7]: 0.18 µM
IC50 ([2]; read-out: IC50 against CrtM): 0.2 µM
IC50 [1]: 0.003 µM
IC50 [3, 8]: 1.1 µM

O=P([O-])([O-])C(Cc1cccc(Oc2ccccc2)c1)S(=O)(=O)[O-].[K+].[K+].[K+] (centres unmarked) [Compound 14, 1-Phosphono-2-(3-phenoxyphenyl)ethylsulfonic acid tripotassium salt]
IC50 [2, 7]: 1700 µM
CrtM/hSQS selectivity [1]: 0.0022
IC50 [1]: 3.7 µM
pIC50 (CrtM) − pIC50 (hSQS) [1]: −2.66
relative CrtM/hSQS selectivity [1]: 0.8
IC50 [3, 8]: 33.9 µM

O=P(O)(O)CP(=O)(O)CCCCc1cccc(Oc2ccccc2)c1 [compound 885]
IC50 [2]: 45 µM
IC50 [3, 9]: 0.44 µM
